Measurements reported in PMC12706778, “Humanization of Drug Metabolism in the Plasmodium berghei Mouse Model for Antimalarial Drug Discovery” (ACS Infectious Diseases, 2025).

What was measured:
[1] = Intrinsic clearance with 8HUM mouse hepatic microsomes; type: in vitro ADME
Protocol: (§1) Microsomes from 8HUM were prepared as described previously. Compounds were added at 0.5 μM (metabolic stability) or 5 μM (metabolite profiling) to microsomes in buffer (0.5 mg/mL protein in 50 mM potassium phosphate, pH 7.4), and reactions were initiated with the addition of excess NADPH (final concentration 0.8 mg/mL). Aliquots (50 μL) were taken immediately and at 3, 6, 9, 15, and 30 min, mixed with two volumes of acetonitrile containing internal standard (donepezil, 50 ng/mL), and kept on ice. After all samples were collected, 250 μL of 20% acetonitrile was added to each sample and samples were then centrifuged for 10 min at 3000g at ambient temperature. LC–MS/MS analysis was carried out immediately.
(§2) Microsomal incubation samples were analyzed on an Acquity UPLC system coupled to a Xevo TQS-Micro, operated using MassLynx software version 4.2 (Waters, Wilmslow, UK). […]
(§3) Raw LC–MS/MS data were exported to XLfit (IDBS, Woking, UK) for calculation of the exponential decay rate constant (k) from the ratio of the peak area of the test compound to the internal standard at each time point. Intrinsic clearance (CLint) was calculated by multiplying k by the incubation volume and […]. […] Lower and upper limits of quantitation were 0.011 and 0.1 mL/min/mg, respectively. […]

[2] = Intrinsic clearance with human hepatic microsomes; type: in vitro ADME; settings: for metabolism with hepatic microsomes (in words): stated for hepatic microsomes from human, 8HUM and WT mice together
Protocol: as §1
(§4) Microsomal incubation samples were analyzed on an Acquity UPLC system coupled to a Xevo TQS-Micro, operated using MassLynx software version 4.2 (Waters, Wilmslow, UK). […] The mass spectrometer was operated with electrospray ionization in positive mode, with a capillary voltage of 0.8 kV, a desolvation temperature of 500 °C (in vitro samples) or 600 °C (PK samples), a desolvation gas flow at 1000 L/h, a cone gas flow at 150 L/h, and a source temperature at 150 °C. Multiple reaction monitoring transitions, cone voltages, and collision energies were optimized for each compound using QuanOptimise software.
Raw LC–MS/MS data were exported to XLfit (IDBS, Woking, UK) for calculation of the exponential decay rate constant (k) from the ratio of the peak area of the test compound to the internal standard at each time point. Intrinsic clearance (CLint) was calculated by multiplying k by the incubation volume and […]. […] Lower and upper limits of quantitation were 0.011 and 0.1 mL/min/mg, respectively. Values were transferred to RStudio (Posit, Boston, MA, USA) for visualization using the ggplot2 package.

[3] = Intrinsic clearance with WT mouse hepatic microsomes; type: in vitro ADME; settings: WT mouse microsomes versus human or 8HUM
Protocol: as §1, §2, §3

[4] = Oral pharmacokinetics in whole blood of 8HUM mice; type: in vivo, mouse; settings: for Tmax / blood plasma ratio: female, mouse; for Tmax: 8HUM, po; for blood plasma ratio: blood and plasma samples from same animals at identical timepoints, read-out: B/P (blood-to-plasma ratio); for AUCinf higher in 8HUM than in WT mice: oral dose, 8HUM versus WT
Protocol: (§5) Three female mice were used in each pharmacokinetic experiment. Dose levels and schedules were as described in the text. All compounds were administered as fine suspensions in a vehicle of 1% methylcellulose and 0.5% Tween80 in water at a dose volume of 5 mL/kg. Serial blood samples (10 μL) were taken from the tail vein at the time points shown, diluted into 9 volumes of Milli-Q water, and stored at −20 °C prior to bioanalysis. PK parameters were determined by noncompartmental analysis using the Phoenix WinNonlin version 8.3.1.5014 (Certara).
as §4
(§6) On the day of sample analysis, calibration standards (CSs) and quality controls (QCs) were prepared from separate compound aliquots. Compounds were dissolved in DMSO and spiked into diluted blank blood as a control matrix, prior to extraction with three volumes of acetonitrile containing the internal standard (donepezil at 5 ng/mL), in parallel with PK samples. Concentration of the drug in samples was determined by interpolation onto CS values using TargetLynx (Waters). Acceptance criteria of the bioanalytical method included a CS accuracy of ±20% of nominal (theoretical) concentration across the range of interest. […] QCs at low-, medium-, and high- concentration levels were injected throughout the analytical run, with an acceptance criterion of 66% of injected samples being within ±20% of nominal concentrations. […] Sample carryover was determined in a blank injection immediately following the injection of the top CS. Carryover was deemed accepted when the test compound response in the blank was <1% of that in the top calibration sample.

[5] = Oral pharmacokinetics in whole blood of WT mice; type: in vivo; settings: female, mouse; for Tmax: WT, po; for blood plasma ratio: WT mice, blood and plasma samples from same animals at identical timepoints, read-out: B/P (blood-to-plasma ratio)
Protocol: as §5, §4, §6

Plasmodium berghei = test: Short course P. berghei infection efficacy in 8HUM mice; type: in vivo, Plasmodium berghei ANKA in 8HUM mice; settings: 8HUM infected with 0.3 × 10^6 P. berghei infected erythrocytes; single dose 7 mg/kg 24 h after infection; untreated approximately 10% after 5 days; n = 3
Protocol: Donor mice (CD-1) were intraperitoneally administered a solution containing cryopreserved erythrocytes infected with P. berghei ANKA (200 μL at approximately 4% parasitemia). […] Piperaquine (Sigma, C7874) was administered at 7 mg/kg in aqueous vehicle containing 1% (w/v) methylcellulose and 0.5% (w/v) Tween 80. Peripheral blood samples were collected daily, and parasitemia was determined as described.

[6] = chloroquine and primaquine 5 mg/kg, quinine 20 mg/kg

In the case of `CCN(CC)Cc1cc(Nc2ccnc3cc(Cl)ccc23)ccc1O` [Amodiaquine, amodiaquine], the “stability in 8HUM microsomes compared with human” value [1] is reported as “much more stable” and the “metabolism by human liver microsomes (in words)” value [2] is reported as “rapidly metabolized”.
For `CO[C@H]1O[C@@H]2O[C@@]3(C)CC[C@H]4[C@H](C)CC[C@@H]([C@H]1C)[C@@]24OO3` [Artemether, artemether], the “metabolism by human liver microsomes (in words)” value [2] was “rapidly metabolized”.
For `C[C@H]1[C@H](OC(=O)CCC(=O)O)O[C@@H]2O[C@@]3(C)CC[C@H]4[C@H](C)CC[C@@H]1[C@@]24OO3` [Artesunate, artesunate], the “metabolism by human liver microsomes (in words)” value [2] was “rapidly metabolized”.
In the case of `O=C1C(O)=C([C@H]2CC[C@H](c3ccc(Cl)cc3)CC2)C(=O)c2ccccc21` [Atovaquone, atovaquone], the “metabolism with hepatic microsomes (in words)” value [2] is reported as “Very little metabolism”.
In the case of `CCN(CC)CCCC(C)Nc1ccnc2cc(Cl)ccc12` (centres unmarked) [Chloroquine, chloroquine], the “stability with WT microsomes compared with human or 8HUM microsomes” value [3] is reported as “less stable”, the Tmax ([4]; in vivo) is reported as 3 ± 2.6 h and the blood plasma ratio ([4]; in vivo, 8HUM mice) is reported as 3.88 ± 1.64. For the same compound, the “AUCinf higher in 8HUM than in WT mice” value [4, 6] was 2.8 fold, the Tmax ([5]; in vivo) was 2 h and the blood plasma ratio ([5]; in vivo) was 3.03 ± 0.38.
With `C[C@H]1c2cccc(O)c2C(=O)C2=C(O)[C@]3(O)C(=O)C(C(N)=O)=C(O)[C@@H](N(C)C)[C@@H]3[C@@H](O)[C@@H]21` [Doxycycline, doxycycline] the “metabolism with hepatic microsomes (in words)” value [2] was “Very little metabolism”.
In the case of `OC(c1cc(C(F)(F)F)nc2c(C(F)(F)F)cccc12)C1CCCCN1` (centres unmarked) [Mefloquine, mefloquine], the Tmax ([4]; whole blood) is reported as 7.3 ± 1.2 h, the blood plasma ratio ([4]; whole blood and plasma, oral, 8HUM mice) is reported as 1.41 ± 0.16 and the “metabolism with hepatic microsomes (in words)” value [2] is reported as “Very little metabolism”. It also gave a Tmax ([5]; whole blood) of 4.7 ± 1.2 h and a blood plasma ratio ([5]; whole blood and plasma, oral) of 1.44 ± 0.07.
For `COc1cc(NC(C)CCCN)c2ncccc2c1` (centres unmarked) [Primaquine, primaquine], the “stability with WT microsomes compared with human or 8HUM microsomes” value [3] was “less stable”, the C max ([4]; 8HUM mice, whole blood, PO, chloroquine and primaquine 5 mg/kg, quinine 20 mg/kg, n = 3) was 534 ± 37 ng/mL and the Tmax ([4]; in vivo) was 0.8 ± 0.2 h. For the same compound, the blood plasma ratio ([4]; in vivo, 8HUM mice) was 1.01 ± 0.03, the “AUCinf higher in 8HUM than in WT mice” value [4, 6] was 22 fold and the Tmax ([5]; in vivo) was 0.6 ± 0.2 h. It also gave a blood plasma ratio ([5]; in vivo) of 1.05 ± 0.19.
In the case of `[H]/N=C(\N/C(=N/[H])Nc1ccc(Cl)cc1)NC(C)C` [Proguanil, proguanil], the “metabolism with hepatic microsomes (in words)” value [2] is reported as “Very little metabolism”.
In the case of `CCc1nc(N)nc(N)c1-c1ccc(Cl)cc1` [Pyrimethamine, pyrimethamine], the “metabolism with hepatic microsomes (in words)” value [2] is reported as “Very little metabolism”.
`C=C[C@H]1C[N@@]2CC[C@H]1C[C@H]2[C@H](O)c1ccnc2ccc(OC)cc12` [Quinine, quinine] gave a Tmax ([4]; whole blood) of 10.7 ± 11.7 h and a Tmax ([5]; whole blood) of 0.3 ± 0.1 h.
For `Clc1ccc2c(N3CCN(CCCN4CCN(c5ccnc6cc(Cl)ccc56)CC4)CC3)ccnc2c1` [piperaquine], the parasitemia after treatment (Plasmodium berghei) was “almost undetectable levels”.
